Among the test systems are 786-0 renal; DLD-1 colon; DMS 114 small cell lung; KM20L2 colon; OVCAR-4 ovarian; XF 498 CNS.
Test in all cases: NCI-60 cell line screen, 48 h

SMILES strings stand for the structures.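 Cells were grown in 96-well plates and exposed to each compound for 48 hours at five concentrations; endpoints were interpolated linearly between bracketing concentrations, or set to the highest concentration if not reached. TGI: concentration producing complete growth inhibition.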 Where only a bound is given, the exact number is not on record here.

On to `COc1cc(C(C)O)c[n+](CCc2c[nH]c3ccccc23)c1` (stereo not given), for which the TGI with 786-0 renal, in the assay on DLD-1 colon, in the assay with DMS 114 small cell lung, in the assay on KM20L2 colon, in the assay with OVCAR-4 ovarian and in the assay with XF 498 CNS was above 100 µM throughout.

`COc1cc(C=C2C(=O)NC(=O)NC2=O)cc(OC)c1OC`: the TGI with 786-0 renal, in the assay on DLD-1 colon, with DMS 114 small cell lung, in the assay on KM20L2 colon, in the assay on OVCAR-4 ovarian and in the assay with XF 498 CNS was above 100 µM each time.

Turning to `COC1(OC)C2(Cl)C(Cl)=C(Cl)C1(Cl)C1C=CC=CC12` (stereo not given), the TGI in the assay with 786-0 renal, in the assay with DLD-1 colon, in the assay on DMS 114 small cell lung, in the assay on KM20L2 colon, in the assay on OVCAR-4 ovarian and in the assay with XF 498 CNS was above 100 µM each time.

As for `Cc1ccn2c(c1)nc1nc3ccccc3nc12`, the TGI with 786-0 renal, with DLD-1 colon, with DMS 114 small cell lung, in the assay on KM20L2 colon, in the assay on OVCAR-4 ovarian and in the assay with XF 498 CNS was above 100 µM throughout.

Take `CC1(C)SCc2nc3ncccc3n21`: the TGI in the assay with 786-0 renal, with DLD-1 colon, in the assay with DMS 114 small cell lung, with KM20L2 colon, in the assay on OVCAR-4 ovarian and in the assay with XF 498 CNS was above 100 µM each time.

For the compound `Cc1cccc(NC(=O)C(=O)C(C(=O)c2ccc3ccccc3c2)C2OC(=O)c3ccccc32)c1C` (stereo not given), the TGI with 786-0 renal was 20.3 µM; in the assay on DLD-1 colon it was 28.9 µM; with DMS 114 small cell lung, 35.2 µM; in the assay with KM20L2 colon, above 100 µM; in the assay with OVCAR-4 ovarian, 33.7 µM; with XF 498 CNS, 9.47 µM.

For `Cc1ccc(C2=C(c3ccccc3)C(Br)(c3ccc(C)cc3)C(c3ccccc3)=C2c2ccc(C)cc2)cc1`, the TGI with 786-0 renal, in the assay on DLD-1 colon, in the assay on DMS 114 small cell lung, with KM20L2 colon, in the assay with OVCAR-4 ovarian and in the assay with XF 498 CNS was above 100 µM throughout.

In the case of `COc1cc2c(cc1OC)C(CC(=O)NN=C(C)C)NCC2` (stereo not given), the TGI in the assay on 786-0 renal, in the assay with DLD-1 colon, in the assay with DMS 114 small cell lung, in the assay on KM20L2 colon, in the assay with OVCAR-4 ovarian and in the assay with XF 498 CNS was above 100 µM in each case.

Take `C1=CC2SSSC2C1` (stereo not given): the TGI in the assay on 786-0 renal, in the assay on DLD-1 colon, in the assay on DMS 114 small cell lung, in the assay with KM20L2 colon, in the assay on OVCAR-4 ovarian and in the assay on XF 498 CNS was above 100 µM each time.

For `NC(N)=N/N=C(\c1nc2ccc([N+](=O)[O-])cc2[nH]c1=O)C(O)c1ccc([N+](=O)[O-])cc1` (stereo not given), the TGI in the assay with 786-0 renal was above 100 µM; with DLD-1 colon, above 100 µM; in the assay on DMS 114 small cell lung it was 75 µM; with KM20L2 colon, above 100 µM; in the assay on OVCAR-4 ovarian it was above 100 µM; with XF 498 CNS, above 100 µM.

With `c1ccc(CNn2nnc3ccccc32)cc1`, the TGI with 786-0 renal, with DLD-1 colon, with DMS 114 small cell lung, with KM20L2 colon, with OVCAR-4 ovarian and in the assay with XF 498 CNS was above 100 µM in each case.

As to `O=C(Cc1ccccc1)NN1C(=O)C(Cl)C1c1cc(Br)ccc1O` (stereo not given), the TGI was above 100 µM in the assay with 786-0 renal; above 100 µM in the assay on DLD-1 colon; 8.77 µM with DMS 114 small cell lung; above 100 µM in the assay with KM20L2 colon; above 100 µM in the assay with OVCAR-4 ovarian; above 100 µM in the assay on XF 498 CNS.

`COC(=O)C1=C(C)N(NC(=O)OC(C)(C)C)C(=O)C1=P(c1ccccc1)(c1ccccc1)c1ccccc1`: the TGI with 786-0 renal, in the assay with DLD-1 colon, with DMS 114 small cell lung, in the assay on KM20L2 colon, with OVCAR-4 ovarian and in the assay with XF 498 CNS was above 100 µM in each case.

Take `Cc1nc(N)sc1C(=O)/C=C\c1ccc2c(c1)OCO2`: the TGI with 786-0 renal, in the assay with DLD-1 colon, with DMS 114 small cell lung, with KM20L2 colon, with OVCAR-4 ovarian and with XF 498 CNS was above 100 µM each time.

As to `Cc1cc(Cl)ccc1N=C1NC(=O)C(CC(=O)Nc2ccc([N+](=O)[O-])cc2[N+](=O)[O-])S1` (stereo not given), the TGI is above 100 µM in the assay with 786-0 renal; above 100 µM in the assay on DLD-1 colon; 49.9 µM in the assay with DMS 114 small cell lung; above 100 µM in the assay with KM20L2 colon; 56.3 µM with OVCAR-4 ovarian; 53.6 µM in the assay on XF 498 CNS.

The record behind these values is PubChem BioAssay (NCI).
